Laboratory results as given in ChEMBL document CHEMBL1201862, “PubChem BioAssay data set” (2004).
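Briefly, cells in 96-well plates were exposed to five compound concentrations for 48 h, and endpoints were estimated by linear interpolation. GI50 marks 50% less growth.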 The source made the active and inactive calls. No stated cut-off is given here; in the data, active = GI50 up to about 1.1 µM and inactive = higher. Where a SMILES comes first, the peptide text is derived from it. The star is where a group is joined. Boc = CC(C)(C)OC(=O)*

Key:
Test in all cases: DTP human tumour cell line panel, 48 h
A549 = system: A549
CCRF-CEM = system: CCRF-CEM
DU-145 = system: DU-145
EKVX = system: EKVX
HCT-116 = system: HCT-116
HOP-62 = system: HOP-62
HT-29 = system: HT-29
LOX IMVI = system: LOX IMVI
M14 = system: M14
MDA-N = system: MDA-N
NCI-H23 = system: NCI-H23
OVCAR-5 = system: OVCAR-5
OVCAR-8 = system: OVCAR-8
PC-3 = system: PC-3
SK-OV-3 = system: SK-OV-3
SN12C = system: SN12C
SNB-19 = system: SNB-19
SNB-75 = system: SNB-75
SR = system: SR

Row | SMILES | GI50 (A549) | GI50 (CCRF-CEM) | GI50 (DU-145) | GI50 (EKVX) | GI50 (HCT-116) | GI50 (HOP-62) | GI50 (HT-29) | GI50 (LOX IMVI) | GI50 (M14) | GI50 (MDA-N) | GI50 (NCI-H23) | GI50 (OVCAR-5) | GI50 (OVCAR-8) | GI50 (PC-3) | GI50 (SK-OV-3) | GI50 (SN12C) | GI50 (SNB-19) | GI50 (SNB-75) | GI50 (SR)
1 | Cc1ccc2c(c1)nc1n2C(N)=Nc2ccccc2S1 | 25.4 µM (inactive) | 2.65 µM (inactive) | > 69.8 µM (inactive) | 36.4 µM (inactive) | 4.4 µM (inactive) | > 83.4 µM (inactive) | 15.8 µM (inactive) | 3.51 µM (inactive) | 3.44 µM (inactive) | 5.78 µM (inactive) | 28.7 µM (inactive) | > 75.7 µM (inactive) | 25.5 µM (inactive) | 75 µM (inactive) | > 100 µM (inactive) | > 92.7 µM (inactive) | 35.8 µM (inactive) | > 54.6 µM (inactive) | 4.7 µM (inactive)
2 | COc1ccc(C(C#N)NC23CC4CC(CC(C4)C2)C3)cc1OC (stereo not drawn) | > 100 µM (inactive) | > 100 µM (inactive) | > 100 µM (inactive) | > 100 µM (inactive) | > 100 µM (inactive) | > 100 µM (inactive) | > 100 µM (inactive) | > 100 µM (inactive) | > 100 µM (inactive) | > 100 µM (inactive) | > 100 µM (inactive) | > 100 µM (inactive) | > 100 µM (inactive) | > 100 µM (inactive) | > 100 µM (inactive) | > 100 µM (inactive) | > 100 µM (inactive) | > 100 µM (inactive) | > 100 µM (inactive)
3 | COc1cc([C@@H]2c3cc4c(cc3[C@@H](Nc3ccc([N+](=O)[O-])cc3C(=O)c3ccccc3)[C@H]3COC(=O)[C@H]23)OCO4)cc(OC)c1OC | 0.446 µM (active) | 0.391 µM (active) | 0.434 µM (active) | > 100 µM (inactive) | 0.23 µM (active) | 0.282 µM (active) | 0.32 µM (active) | 0.281 µM (active) | 0.281 µM (active) | 0.0687 µM (active) | 0.428 µM (active) | 0.555 µM (active) | 0.515 µM (active) | 0.344 µM (active) | 0.46 µM (active) | 0.416 µM (active) | 0.603 µM (active) | > 100 µM (inactive) | 0.177 µM (active)
4 | CN1CC[N+](C)=C1c1ccccc1 | > 100 µM (inactive) | > 100 µM (inactive) | > 100 µM (inactive) | > 100 µM (inactive) | > 100 µM (inactive) | > 100 µM (inactive) | > 100 µM (inactive) | > 100 µM (inactive) | > 100 µM (inactive) | > 100 µM (inactive) | > 100 µM (inactive) | > 100 µM (inactive) | > 100 µM (inactive) | > 100 µM (inactive) | > 100 µM (inactive) | > 100 µM (inactive) | > 100 µM (inactive) | > 100 µM (inactive) | > 100 µM (inactive)
5 | C#C[C@]1(O)CC[C@H]2[C@@H]3CCC4=C/C(=N/OC(=O)c5cccc6c(=O)c7ccccc7[nH]c56)CC[C@@H]4[C@H]3CC[C@@]21C | 64.3 µM (inactive) | 14.4 µM (inactive) | 61.9 µM (inactive) | 71 µM (inactive) | 48.5 µM (inactive) | > 100 µM (inactive) | 52.5 µM (inactive) | 34 µM (inactive) | 56.5 µM (inactive) | 43.2 µM (inactive) | 40.6 µM (inactive) | > 100 µM (inactive) | 42.1 µM (inactive) | 37.5 µM (inactive) | > 100 µM (inactive) | > 100 µM (inactive) | > 100 µM (inactive) | 97.7 µM (inactive) | 12.1 µM (inactive)
6 | CCCC1NC(C#N)(C#N)C(CCC)NC1(C#N)C#N (stereo not drawn) | 14.3 µM (inactive) | < 0.01 µM (active) | 3.78 µM (inactive) | 42.8 µM (inactive) | < 0.0158 µM (active) | 35.8 µM (inactive) | 0.115 µM (active) | 0.105 µM (active) | 0.126 µM (active) | 0.285 µM (active) | 2.49 µM (inactive) | 24.7 µM (inactive) | 0.149 µM (active) | 0.318 µM (active) | 35.9 µM (inactive) | 1.11 µM (active) | 40.9 µM (inactive) | 2.17 µM (inactive) | < 0.0173 µM (active)
7 | CSc1ccc(NC(=S)NN(C)C)cc1 | > 10 µM (inactive) | > 10 µM (inactive) | > 10 µM (inactive) | > 10 µM (inactive) | > 10 µM (inactive) | > 10 µM (inactive) | > 10 µM (inactive) | > 10 µM (inactive) | > 10 µM (inactive) | > 10 µM (inactive) | > 10 µM (inactive) | – | > 10 µM (inactive) | > 10 µM (inactive) | > 10 µM (inactive) | > 10 µM (inactive) | > 10 µM (inactive) | > 10 µM (inactive) | > 10 µM (inactive)
8 | CN(NC(=O)/C(=C/C=C/c1ccccc1)NC(=O)c1ccccc1)C1=C(Cl)C(=O)[N+](c2ccccc2)=CC1 | 26.3 µM (inactive) | – | 33 µM (inactive) | 35.8 µM (inactive) | 20.1 µM (inactive) | 21.7 µM (inactive) | 29.2 µM (inactive) | 17.3 µM (inactive) | 18.1 µM (inactive) | 18.2 µM (inactive) | 35.4 µM (inactive) | > 100 µM (inactive) | 21.1 µM (inactive) | 35.7 µM (inactive) | > 100 µM (inactive) | 24.8 µM (inactive) | 25.4 µM (inactive) | 21.6 µM (inactive) | 21.4 µM (inactive)
9 | N=C1OC(c2c[nH]c3ccc(OCc4ccccc4)cc23)C(O)=C1O (stereo not drawn) | > 100 µM (inactive) | – | > 100 µM (inactive) | > 100 µM (inactive) | > 100 µM (inactive) | > 100 µM (inactive) | > 100 µM (inactive) | > 100 µM (inactive) | > 100 µM (inactive) | > 100 µM (inactive) | > 100 µM (inactive) | > 100 µM (inactive) | > 100 µM (inactive) | > 100 µM (inactive) | > 100 µM (inactive) | > 100 µM (inactive) | > 100 µM (inactive) | 29.2 µM (inactive) | > 100 µM (inactive)
10 | CC(=O)c1c(=O)n(-c2ccc(C)cc2)c(O)c2c(N)n[nH]c12 | > 100 µM (inactive) | > 100 µM (inactive) | > 100 µM (inactive) | > 100 µM (inactive) | > 100 µM (inactive) | – | > 100 µM (inactive) | > 100 µM (inactive) | > 100 µM (inactive) | > 100 µM (inactive) | > 100 µM (inactive) | > 100 µM (inactive) | > 100 µM (inactive) | > 100 µM (inactive) | > 100 µM (inactive) | > 100 µM (inactive) | > 100 µM (inactive) | > 100 µM (inactive) | > 100 µM (inactive)
11 | CCC1NC(=O)C(NC(=O)c2ncccc2O)C(C)OC(=O)C(c2ccccc2)NC(=O)C2CC(=O)CCN2C(=O)C(Cc2ccccc2)N(C)C(=O)C2CCCN2C1=O (stereo not drawn) | > 100 µM (inactive) | 41.5 µM (inactive) | > 100 µM (inactive) | – | > 100 µM (inactive) | > 100 µM (inactive) | > 100 µM (inactive) | > 100 µM (inactive) | > 100 µM (inactive) | > 100 µM (inactive) | > 100 µM (inactive) | > 100 µM (inactive) | > 100 µM (inactive) | > 100 µM (inactive) | > 100 µM (inactive) | > 100 µM (inactive) | > 100 µM (inactive) | > 100 µM (inactive) | 37.4 µM (inactive)
12 | CCOC(=O)c1nc2cc(F)cc(F)c2[nH]c1=O | > 100 µM (inactive) | > 100 µM (inactive) | > 100 µM (inactive) | – | > 100 µM (inactive) | > 100 µM (inactive) | > 100 µM (inactive) | > 100 µM (inactive) | > 100 µM (inactive) | > 100 µM (inactive) | > 100 µM (inactive) | > 100 µM (inactive) | > 100 µM (inactive) | > 100 µM (inactive) | > 100 µM (inactive) | > 100 µM (inactive) | > 100 µM (inactive) | > 100 µM (inactive) | > 100 µM (inactive)
13 | CO/N=C1\CC(NC(=O)C(F)(F)F)c2ccsc21 (stereo not drawn) | > 100 µM (inactive) | > 100 µM (inactive) | > 100 µM (inactive) | > 100 µM (inactive) | > 100 µM (inactive) | > 100 µM (inactive) | > 100 µM (inactive) | > 100 µM (inactive) | > 100 µM (inactive) | > 100 µM (inactive) | > 100 µM (inactive) | > 100 µM (inactive) | > 100 µM (inactive) | > 100 µM (inactive) | > 100 µM (inactive) | > 100 µM (inactive) | – | > 100 µM (inactive) | > 100 µM (inactive)
14 | COC(=O)C(C)NC(=O)C(CCSC)NC(=O)C(Cc1ccccc1)NC(=O)OC(C)(C)C (stereo not drawn) (Boc-Phe-Met-Ala-OMe; configuration not given here) | > 100 µM (inactive) | > 100 µM (inactive) | > 100 µM (inactive) | – | > 100 µM (inactive) | > 100 µM (inactive) | > 100 µM (inactive) | > 100 µM (inactive) | > 100 µM (inactive) | > 100 µM (inactive) | > 100 µM (inactive) | > 100 µM (inactive) | > 100 µM (inactive) | > 100 µM (inactive) | > 100 µM (inactive) | > 100 µM (inactive) | > 100 µM (inactive) | > 100 µM (inactive) | > 100 µM (inactive)
